Results: US20210395239A1 (Hoffmann-La Roche Inc., priority 2018, published 2021)

molecular target: T1, CYP2D6 (Homo sapiens, UniProt P10635); assay: CYP inhibition assay in human liver microsome, CYP2D6; type: in vitro ADME; settings: human, human liver microsomes, probe dextromethorphan 5 μM, substrate dextromethorphan 5 μM, second value of 2C9/2D6/3A4
T1 construct: tissue BD-Gentest 452117; host or cells: human liver microsomes
Experimental: This is a high throughput screening assay used for assessment of reversible inhibition of CYP2C9, CYP2D6, and CYP3A4 activity of test compounds in human liver microsome (HLM) in early discovery stage.
10 mM DMSO stock solutions of test compounds were diluted in DMSO to generate 2 mM intermediate stock solution. 250 nL, of intermediate stock solution were transferred in duplicate into 3 separate 384 well microtitre plates (assay-ready plates). A mixture of HLM and each substrate was made up. 45 μL of HLM substrate mix was then transferred to each well of an assay ready plate and mixed. The negative (solvent) and positive controls (standard inhibitor for each CYP) were included in each assay ready plate. The assay ready plate was warmed to 37° C. in an incubator over 10 minutes. 5 μL pre-warmed NADPH regenerating system was added to each incubation well to start the reaction. Final incubation volume was 50 μL. The assay plate then was placed back in the 37° C. incubator. After incubation (10 minutes for CYP2D6) for 5 minutes, incubates were quenched by addition of 50 μL 100% acetonitrile containing internal standards (400 ng/mL 13C6-4′-OH-Diclofenac, 20 ng/mL D3-Dextrorphan and 20 ng/mL D4-1′OH-Midazolam). The supernatants were collected for RapidFire/MS/MS analysis.
RapidFire online solid phase extraction/sample injection system (Agilent) coupled with API4000 triple quadrupole mass spectrometer (AB Sciex) were used for sample analysis. The mobile phase composed of acetonitrile and water supplemented with 0.1% formic acid. A C4 solid phase extraction cartridge is used for sample separation. MS detection is achieved in positive ion MRM mode.
Peak areas for substrate, metabolite and internal standard are determined using the RapidFire integrator software (version 3.6.12009.12296). Peak area ratios (PAR) of metabolite and internal standard (stable-labelled metabolite) are then calculated. The measurement window for each experiment is then defined:
PAR (0% activity)=average PAR for all incubations containing concentrated inhibitor; Par (100% activity)=average PAR for all incubations containing no inhibitor (DMSO controls); % Activity (test inhibitor)=[PAR (test inhibitor)−PAR (0% activity)]/[PAR (100% activity)−PAR (0% activity)]; % Inhibition (test inhibitor)=100-% Activity (test inhibitor).

T1 sequence (P10635 whole entry): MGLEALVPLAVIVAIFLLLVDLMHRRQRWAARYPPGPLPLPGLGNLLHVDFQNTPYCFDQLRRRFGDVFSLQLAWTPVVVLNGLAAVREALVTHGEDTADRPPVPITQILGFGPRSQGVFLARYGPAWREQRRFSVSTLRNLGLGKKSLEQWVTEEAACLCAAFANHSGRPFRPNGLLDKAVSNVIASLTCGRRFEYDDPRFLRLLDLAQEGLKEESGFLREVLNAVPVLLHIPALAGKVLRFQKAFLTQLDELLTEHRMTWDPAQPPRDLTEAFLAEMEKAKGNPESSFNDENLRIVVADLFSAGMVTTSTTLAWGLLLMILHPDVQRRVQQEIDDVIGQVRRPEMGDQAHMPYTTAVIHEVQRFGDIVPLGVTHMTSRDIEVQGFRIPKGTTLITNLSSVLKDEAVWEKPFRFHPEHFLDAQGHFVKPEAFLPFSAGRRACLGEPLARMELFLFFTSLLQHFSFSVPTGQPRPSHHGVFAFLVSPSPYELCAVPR

| inhibition at 10 min, 10 µM | Structure (SMILES) |
| --- | --- |
| -4% | COC1CNC[C@H]1Nc1cccc(N2CCN(C[C@H]3CN(c4ccc(C#N)c5ncccc45)C[C@@H](C)O3)CC2)n1 (stereo in doubt) [Example 39, 5-[(2S,6R)-2-[[4-[6-[[(3R,4R)-4-methoxypyrrolidin-3-yl]amino]-2-pyridyl]piperazin-1-yl]methyl]-6-methyl-morpholin-4-yl]quinoline-8-carbonitrile] |

molecular target: T2, CYP3A4 (Homo sapiens, UniProt P08684); assay: CYP inhibition assay in human liver microsome, CYP3A4; type: in vitro ADME; settings: human, human liver microsomes, probe midazolam 5 μM, substrate midazolam 5 μM, third value of 2C9/2D6/3A4
T2 construct: tissue BD-Gentest 452117; host or cells: human liver microsomes
T2 sequence (P08684 whole entry): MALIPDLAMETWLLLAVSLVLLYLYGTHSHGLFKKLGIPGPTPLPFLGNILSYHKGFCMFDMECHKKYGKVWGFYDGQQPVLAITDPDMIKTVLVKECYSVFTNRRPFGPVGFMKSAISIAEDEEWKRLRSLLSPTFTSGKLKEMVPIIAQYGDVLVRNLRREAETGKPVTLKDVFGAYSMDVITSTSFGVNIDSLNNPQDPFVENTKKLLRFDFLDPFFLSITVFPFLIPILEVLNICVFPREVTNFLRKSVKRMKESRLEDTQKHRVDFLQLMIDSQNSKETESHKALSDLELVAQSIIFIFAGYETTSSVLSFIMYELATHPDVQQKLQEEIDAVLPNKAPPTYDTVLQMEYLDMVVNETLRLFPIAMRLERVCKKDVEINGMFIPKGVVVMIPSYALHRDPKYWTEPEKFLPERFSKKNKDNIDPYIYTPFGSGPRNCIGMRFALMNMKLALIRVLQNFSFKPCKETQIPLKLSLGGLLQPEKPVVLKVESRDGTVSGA
Outline: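 Pooled human liver microsomes with a substrate for each CYP were incubated with compound at 37 °C after NADPH addition, for 5 min (CYP2D6: 10 min), then quenched with acetonitrile containing labelled metabolite standards. Metabolite/internal-standard peak area ratios were measured by RapidFire MS/MS. % inhibition was scaled between DMSO and standard-inhibitor controls.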

| inhibition at 5 min, 10 µM | Structure (SMILES) |
| --- | --- |
| 23.5% | COC1CNC[C@H]1Nc1cccc(N2CCN(C[C@H]3CN(c4ccc(C#N)c5ncccc45)C[C@@H](C)O3)CC2)n1 (stereo in doubt) [Example 39, 5-[(2S,6R)-2-[[4-[6-[[(3R,4R)-4-methoxypyrrolidin-3-yl]amino]-2-pyridyl]piperazin-1-yl]methyl]-6-methyl-morpholin-4-yl]quinoline-8-carbonitrile] |

molecular target: T3, human TLR8 (Homo sapiens, UniProt Q9NR97); assay: HEK293-Blue-hTLR-8 cells assay (SEAP reporter, R848 stimulation); type: cell-based; settings: HEK293-Blue-hTLR8 cells, R848, 20 hrs; read-out: HEK/hTLR8 IC50
T3 construct: host or cells: HEK293 (HEK-Blue hTLR8)
T3 sequence (Q9NR97 27-1041): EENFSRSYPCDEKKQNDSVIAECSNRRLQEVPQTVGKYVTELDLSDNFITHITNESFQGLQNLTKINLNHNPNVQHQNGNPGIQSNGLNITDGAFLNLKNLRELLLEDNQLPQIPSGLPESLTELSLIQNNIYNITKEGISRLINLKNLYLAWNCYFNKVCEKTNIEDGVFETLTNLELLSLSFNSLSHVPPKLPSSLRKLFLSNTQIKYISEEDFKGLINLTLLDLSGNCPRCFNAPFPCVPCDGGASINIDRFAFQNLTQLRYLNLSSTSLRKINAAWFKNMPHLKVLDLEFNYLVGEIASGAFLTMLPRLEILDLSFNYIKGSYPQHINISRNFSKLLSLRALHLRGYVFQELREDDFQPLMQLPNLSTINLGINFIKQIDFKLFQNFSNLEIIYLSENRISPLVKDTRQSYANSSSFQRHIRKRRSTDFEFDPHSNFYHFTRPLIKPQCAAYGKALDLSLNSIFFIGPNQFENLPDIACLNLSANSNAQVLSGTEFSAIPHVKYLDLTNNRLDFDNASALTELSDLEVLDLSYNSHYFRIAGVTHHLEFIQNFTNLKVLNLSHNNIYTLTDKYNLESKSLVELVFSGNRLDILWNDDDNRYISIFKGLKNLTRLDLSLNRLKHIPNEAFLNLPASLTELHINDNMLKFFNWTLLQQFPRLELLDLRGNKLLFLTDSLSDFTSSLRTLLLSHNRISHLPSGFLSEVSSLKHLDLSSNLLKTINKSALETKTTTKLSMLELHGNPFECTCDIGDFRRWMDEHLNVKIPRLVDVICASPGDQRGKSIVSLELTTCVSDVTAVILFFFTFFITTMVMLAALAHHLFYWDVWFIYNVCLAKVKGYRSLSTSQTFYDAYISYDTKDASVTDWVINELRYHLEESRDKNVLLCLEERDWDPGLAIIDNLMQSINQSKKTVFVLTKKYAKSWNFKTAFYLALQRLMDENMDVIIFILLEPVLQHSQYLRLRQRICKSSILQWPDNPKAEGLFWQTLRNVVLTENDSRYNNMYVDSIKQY
Outline: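 Antagonism read as reduced R848-induced SEAP reporter secretion, detected by QUANTI-Blue absorbance at 620–655 nm after 2 h. Reporter cells were exposed to compound dilutions in DMEM/10% FBS, 1% DMSO, for 20 h at 37° C.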

| Structure (SMILES) | IC50 |
| --- | --- |
| COC1CNC[C@H]1Nc1cccc(N2CCN(C[C@H]3CN(c4ccc(C#N)c5ncccc45)C[C@@H](C)O3)CC2)n1 (stereo in doubt) [Example 39, 5-[(2S,6R)-2-[[4-[6-[[(3R,4R)-4-methoxypyrrolidin-3-yl]amino]-2-pyridyl]piperazin-1-yl]methyl]-6-methyl-morpholin-4-yl]quinoline-8-carbonitrile] | 23 nM |
| Cc1cc(N2CCNCC2)nc(N2CCN(C[C@H]3CN(c4ccc(C#N)c5ncccc45)C[C@@H](C)O3)CC2)n1 [Example 68, 5-[(2R,6S)-2-methyl-6-[[4-(4-methyl-6-piperazin-1-yl-pyrimidin-2-yl)piperazin-1-yl]methyl]morpholin-4-yl]quinoline-8-carbonitrile] | 2 nM |
| C[C@@H]1CN(c2cc(=O)n(C)c3ncccc23)C[C@H](CN2CC(c3ccc(N4CCNCC4)cc3)C2)O1 [Example 171, 1-methyl-4-[(2R,6S)-2-methyl-6-[[3-(4-piperazin-1-ylphenyl)azetidin-1-yl]methyl]morpholin-4-yl]-1,8-naphthyridin-2-one] | 129 nM |
| C[C@@H]1CN(c2cc(=O)n(C)c3ncccc23)C[C@H](CN2CC(c3ccc(N4CC5(CNCCO5)C4)cc3)C2)O1 [Example 173, 1-methyl-4-[(2R,6S)-2-methyl-6-[[3-[4-(5-oxa-2,8-diazaspiro[3.5]nonan-2-yl)phenyl]azetidin-1-yl]methyl]morpholin-4-yl]-1,8-naphthyridin-2-one] | 74 nM |
| C[C@@H]1CN(c2cc(=O)n(C)c3ncccc23)C[C@H](CN2CC(c3ccc(N4CC(C)(N)C4)cc3)C2)O1 [Example 176, 4-[(2S,6R)-2-[[3-[4-(3-amino-3-methyl-azetidin-1-yl)phenyl]azetidin-1-yl]methyl]-6-methyl-morpholin-4-yl]-1-methyl-1,8-naphthyridin-2-one] | 323 nM |
| C[C@@H]1CN(c2cc(=O)n(C)c3ncccc23)C[C@H](CN2CC(c3ccc(N4CC5(CN(C)C5)C4)cc3)C2)O1 [Example 180, 1-methyl-4-[(2R,6S)-2-methyl-6-[[3-[4-(6-methyl-2,6-diazaspiro[3.3]heptan-2-yl)phenyl]azetidin-1-yl]methyl]morpholin-4-yl]-1,8-naphthyridin-2-one] | 77 nM |
| C[C@@H]1CN(c2cc(=O)n(C)c3ncccc23)C[C@H](CN2CC(c3ccc(N4C[C@H]5NCCO[C@@H]5C4)cc3)C2)O1 [Example 182, 4-[(2S,6R)-2-[[3-[4-[(4aR,7aR)-3,4,4a,5,7,7a-hexahydro-2H-pyrrolo[3,4-b][1,4]oxazin-6-yl]phenyl]azetidin-1-yl]methyl]-6-methyl-morpholin-4-yl]-1-methyl-1,8-naphthyridin-2-one] | 51 nM |

The remaining lines, values ahead:

| IC50 | Structure (SMILES) |
| --- | --- |
| 23 nM | Cc1cc(N2CCN(C[C@H]3CN(c4ccc(C#N)n5ncc(F)c45)C[C@@H](C)O3)CC2)nc(N2CCNCC2)n1 [Example 67, 3-Fluoro-4-[(2R,6S)-2-methyl-6-[[4-(6-methyl-2-piperazin-1-yl-pyrimidin-4-yl)piperazin-1-yl]methyl]morpholin-4-yl]pyrazolo[1,5-a]pyridine-7-carbonitrile] |
| 30 nM | C[C@@H]1CN(c2ccc(C#N)n3ncc(F)c23)C[C@H](CN2CCN(c3ccc(N4CC5(CNCCO5)C4)nc3)CC2)O1 [Example 169, 3-fluoro-4-[(2R,6S)-2-methyl-6-[[4-[6-(5-oxa-2,8-diazaspiro[3.5]nonan-2-yl)-3-pyridyl]piperazin-1-yl]methyl]morpholin-4-yl]pyrazolo[1,5-a]pyridine-7-carbonitrile] |
| 12 nM | C[C@@H]1CN(c2ccc(C#N)n3ncc(F)c23)C[C@H](CN2CCN(c3ccc(N4CC[C@@H](N)[C@H](F)C4)nc3)CC2)O1 [Example 175, 4-[(2S,6R)-2-[[4-[6-[(3R,4R)-4-amino-3-fluoro-1-piperidyl]-3-pyridyl]piperazin-1-yl]methyl]-6-methyl-morpholin-4-yl]-3-fluoro-pyrazolo[1,5-a]pyridine-7-carbonitrile] |
| 27 nM | C[C@@H]1CN(c2ccc(C#N)n3ncc(F)c23)C[C@H](CN2CCN(c3ccc([C@@H]4CNCCO4)cc3)CC2)O1 [Example 177, 3-fluoro-4-[(2R,6S)-2-methyl-6-[[4-[4-[(2R)-morpholin-2-yl]phenyl]piperazin-1-yl]methyl]morpholin-4-yl]pyrazolo[1,5-a]pyridine-7-carbonitrile] |
| 91 nM | C[C@@H]1CN(c2ccc(C#N)n3ncc(F)c23)C[C@H](CN2CCN(c3ccc(N4CCOC5(CNC5)C4)nc3)CC2)O1 [Example 178, 3-fluoro-4-[(2R,6S)-2-methyl-6-[[4-[6-(5-oxa-2,8-diazaspiro[3.5]nonan-8-yl)-3-pyridyl]piperazin-1-yl]methyl]morpholin-4-yl]pyrazolo[1,5-a]pyridine-7-carbonitrile] |
| 54 nM | C[C@@H]1CN(c2ccc(C#N)n3ncc(F)c23)C[C@H](CN2CCN(c3ccc(N4CC5(CCN5)C4)nc3)CC2)O1 [Example 179, 4-[(2S,6R)-2-[[4-[6-(1,6-diazaspiro[3.3]heptan-6-yl)-3-pyridyl]piperazin-1-yl]methyl]-6-methyl-morpholin-4-yl]-3-fluoro-pyrazolo[1,5-a]pyridine-7-carbonitrile] |
| 14 nM | C[C@@H]1CN(c2ccc(C#N)n3ncc(F)c23)C[C@H](CN2CCN(c3ccc([C@@H]4CNCCO4)c(F)c3)CC2)O1 [Example 184, 3-fluoro-4-[(2S,6R)-2-[[4-[3-fluoro-4-[(2R)-morpholin-2-yl]phenyl]piperazin-1-yl]methyl]-6-methyl-morpholin-4-yl]pyrazolo[1,5-a]pyridine-7-carbonitrile] |
| 33 nM | C[C@@H]1CN(c2ccc(C#N)n3ncc(F)c23)C[C@H](CN2CCN(c3ccc(C4(C)CNCCO4)cc3)CC2)O1 (stereo partly drawn) [Example 185, 3-fluoro-4-[(2R,6S)-2-methyl-6-[[4-[4-(2-methylmorpholin-2-yl)phenyl]piperazin-1-yl]methyl]morpholin-4-yl]pyrazolo[1,5-a]pyridine-7-carbonitrile] |
| 23 nM | C[C@@H]1CN(c2ccc(C#N)n3ncc(F)c23)C[C@H](CN2CCN(c3ccc(C[C@@H]4CNCCO4)cc3)CC2)O1 [Example 186, 3-fluoro-4-[(2R,6S)-2-methyl-6-[[4-[4-[[(2R)-morpholin-2-yl]methyl]phenyl]piperazin-1-yl]methyl]morpholin-4-yl]pyrazolo[1,5-a]pyridine-7-carbonitrile] |
